The subject of experiment [1] is untransduced A549 cells. In words: Growth inhibition assay (MTT), parental A549 cells. The settings on record: 4 days. It is filed as cell-based, human. The method, then: A549 human lung carcinoma cells, obtained from American Type Culture Collection (ATCC), were maintained in RPMI 1640 medium (Canadian Life Technologies) supplemented with 10% heat-inactivated FBS.
(§1) Gene-modified A549 cells were plated in 96-well flat-bottom tissue culture dishes at a density of 1500 cells per well. Various concentrations of ARA-C or dFdC (Lilly Research Laboratories, Indianapolis, Ind.) were added to cells in a final volume of 100 μl RPMI/10% FBS. Cells were placed at 37° C. and 4 days later exposed to 20 μl of a solution containing 3-(4,5-deimethylthiazol-2-yl)-2,5-diphenyltetrazolium bromide, i.e. MTT, for 4 hours at 37° C., and subsequently to 100 μl of a solubilization buffer (50% N,N-dimethylformamide, 20% SDS) for approximately 15 hours. The optical density was then measured at 570 nm with reference at 630 nm using a multi-well plate reader, thus providing an assessment of the percentage of surviving cells based on the cleavage of MTT by the mitochondrial dehydrogenases of living cells to the detectable formazan. Percent cell survival was ascertained using the following equation: [formula]

Experiment [2] relates to A549-IRES-EGFP cells. As to the kind of experiment: Growth inhibition assay (MTT), control-vector A549 cells. The settings on record: 4 days. The experiment is classed as cell-based, human. Here is the method: (§2) . […] Five days following the last transduction round, flow cytometry analysis was performed to determine gene transfer efficiency and transgene expression as evaluated by GFP fluorescence. Stably transduced A549-CD-IRES-EGFP cells were subsequently expanded in complete media only, as well as in the presence of two different concentrations of ARA-C, 1 μM and 2.5 μM, for 12 days.
as §1

For experiment [3], the system named is A549-CD-IRES-EGFP cells. As to the kind of experiment: Growth inhibition assay (MTT), CD gene-modified A549 cells. The experiment is classed as cell-based, human. The settings on record: for % cell survival: 4 days, MTT. Here is the method: as §2, §1
The subject of experiment [4] is 2.5 μM ARA-C selected A549-CD-IRES-EGFP cells. As to the kind of experiment: Growth inhibition assay (MTT), ARA-C-selected CD gene-modified A549 cells. The experiment is classed as cell-based, human. The settings on record: 4 days. The method, then:
as §2, §1

Experiment [5] has as its system primary human lymphocytes transduced with IRES-EGFP. In words: Growth suppression assay (trypan blue), control-vector lymphocytes. It is filed as cell-based. Conditions: two weeks. From the text:
(§3) Primary human lymphocytes were isolated from peripheral blood by Ficoll Hypaque™ centrifugation and plated at a cell density of ˜1×10^6 cells/ml in RPMI supplemented with 10% FBS, 50 U/ml Pen/Strep, and 200 U/ml human IL-2. The next day, lymphocytes were activated with phytohemagglutinin (PHA) for 72 hrs and subsequently co-cultivated over subconfluent 293GPG-CD-IRES-EGFP or control 293GPG-IRES-EGFP virus producers tetracycline withdrawn three days earlier for optimal high titer virion generation. Lipofectaminel was added for a final concentration of 6 μg/ml, and co-cultivation permitted to proceed for 48 hours. Lymphocytes were then carefully collected and three days later plated at a density of 600 000 cells per well of 48-well tissue culture dishes in the absence or presence of various concentrations of ARA-C in a final volume of 800 μl) complete media. After a two week period, viable cells were enumerated by trypan blue exclusion and cell survival measured as such: % cell survival=(number of cells in test well/number of cells grown in media only)×100. (Flow cytometry analysis for CD3 expression was conducted and all cells confirmed to be lymphocytes.)

The subject of experiment [6] is primary human lymphocytes transduced with CD-IRES-EGFP. In words: Growth suppression assay (trypan blue), CD gene-modified lymphocytes. The experiment is classed as cell-based. The settings on record: two weeks.
Excerpt: as §3

Experiment [7] relates to primary mouse marrow stromal cells. In words: In vitro selection and enrichment assay of CD gene-modified marrow stroma (flow cytometry). The settings on record: for % GFP+ cells: 10% CD-IRES-EGFP stroma mixture (11.7% without ARA-C); for mean GFP fluorescence: 10% CD-IRES-EGFP stroma mixture (13.0±3.0 without ARA-C). It is filed as cell-based. The method, then: One female C57BI/6 mouse was sacrificed by CO2 inhalation and bone marrow cells harvested by flushing the hind leg femurs and tibias with DMEM™ supplemented with 10% FBS and 50 U/ml Pen/Strep. Whole marrow was plated in 10 cm (diameter) tissue culture dishes and five days later, the nonadherent hematopoietic cells were discarded and the adherent bone marrow stromal cells cultured (for ˜3 months) at 37° C. with 5% CO2. Supernatant containing virions from subconfluent GP+envAM12-CD-IRES-EGFP or from control GP+envAM12-Neo^R-IRES-EGFP producers was placed over marrow stromal cells plated at subconfluence. Transduction was carried out twice a day for three successive days in the presence of 6 μg/ml Lipofectamine™. Over 72 hours pursuing to the last transduction round, flow cytometry analysis for GFP expression was performed to evaluate the gene transfer efficiency.
Drug exposure was ceased 7 days later, and cells expanded for an additional week in DMEMI with 10% FBS and 50U/ml Pen/Strep and analysed by flow cytometry analysis. […] Pursuant to a 1-week drug exposure (preventing total confluence by cell passaging) and subsequent week of cell expansion, percent GFP positive cells and mean GFP fluorescence were evaluated by flow cytometry analysis.
In general terms: A flow cytometer gives signals particle by particle.

For `Nc1ccn([C@@H]2O[C@H](CO)[C@@H](O)[C@@H]2O)c(=O)n1` [ARA-C, cytosine arabinoside], the “% cell survival” value is reported as 15.3±0.6% in experiment [1] (ARA-C 1 μM, untransduced A549, MTT); 10.6±0.4% in experiment [2] (ARA-C 1 μM); 47.4±1.9% in experiment [3] (ARA-C 1 μM, A549-CD-IRES-EGFP without post-transduction drug selection); 70.7±1.3% in experiment [4] (ARA-C 1 μM, CD-modified A549 previously selected in 2.5 μM ARA-C for 12 days, MTT); 5.5±1.7% in experiment [5] (ARA-C 1 μM, IRES-EGFP transduced lymphocytes); 0.1±0.1% in experiment [5] (ARA-C 5 μM, IRES-EGFP-modified lymphocytes). The “% cell survival” value in experiment [6] (ARA-C 1 μM) worked out at 87.5±7.2%; in experiment [6] (ARA-C 5 μM) it was 98.1 ± 4.2%. Also, the “survival of A549-CD-IRES-EGFP relative to control cells” value in experiment [3] (ARA-C 1 μM) was “over 3 fold”. The “% GFP+ cells” value in experiment [7] (0.25 μM ARA-C 1 week + 1 week culture) is listed as 51.5%; in experiment [7] (2.5 μM ARA-C 1 week + 1 week culture) it was 99.6%. Also, the “effect on untransduced and NeoR-IRES-EGFP modified stroma” value in experiment [7] (ARA-C 2.5 μM (printed 2.5 CM)) is recorded as “completely eradicate”. Moreover, the “mean GFP fluorescence” value in experiment [7] (selected in 1 μM ARA-C) is 48.3±6.5; in experiment [7] (selected in 2.5 μM ARA-C), 99.3±3.3.
As for `Nc1ccn([C@@H]2O[C@H](CO)[C@@H](O)C2(F)F)c(=O)n1` [dFdC], the “% cell survival” value in experiment [1] (dFdC 0.1M (so in the source), A549, MTT) was found to be 15.1±0.5%; in experiment [2] (dFdC 0.1M (so in the source)) it was 10.7±0.4%; in experiment [3] (dFdC 1 μM, unselected A549-CD-IRES-EGFP), 17.2±0.7%; in experiment [3] (dFdC same concentration (0.1), A549-CD-IRES-EGFP unselected) it was 86.4±2.4%; in experiment [4] (dFdC 0.1 μM, 2.5 μM ARA-C selected CD-IRES-EGFP modified A549, MTT), 92.1±1.7%; in experiment [4] (dFdC 1 μM, 2.5 μM ARA-C selected cells, MTT), 53.3±1.8%.

The values above are taken from patent publication US20040115800A1, “Selectable marker for genetically engineered cells and tissues” (priority 2003, published 2004).
